# Measured values published in ChEMBL document CHEMBL1158870, “Antitumor agents. 180. Chemical Studies and cytotoxic evaluation of cumingianosides and cumindysoside A, antileukemic triterpene glucosides with a 14,18-cycloapotirucallane skeleton” (1997).
# Key:
# [1] = tested on: MDA-N; test: Cytotoxicity against human MDA-N cells by SRB assay; type: functional
# [2] = Cytotoxicity against human MCF7/ADR cells by SRB assay; type: functional; conditions: NCI/ADR-RES
# [3] = tested on: COLO 205; test: Cytotoxicity against human COLO205 cells by SRB assay; type: functional
# [4] = tested on: SN12C; test: Cytotoxicity against human SN12C cells by SRB assay; type: functional
# [5] = tested on: HT-29; test: Cytotoxicity against human HT29 cells by SRB assay; type: functional
# [6] = tested on: IGROV-1; test: Cytotoxicity against human IGROV1 cells by SRB assay; type: functional
# [7] = tested on: SK-OV-3; test: Cytotoxicity against human SKOV3 cells by SRB assay; type: functional
# [8] = tested on: RXF 393; test: Cytotoxicity against human RXF393 cells by SRB assay; type: functional
# [9] = tested on: U-251; test: Cytotoxicity against human U251 cells by SRB assay; type: functional
# [10] = tested on: PC-3; test: Cytotoxicity against human PC3 cells by SRB assay; type: functional
# [11] = tested on: NCI-H23; test: Cytotoxicity against human NCI-H23 cells by SRB assay; type: functional
# [12] = Cytotoxicity against human melanoma cells by SRB assay; type: functional; conditions: Melanoma cell
# [13] = tested on: HOP-92; test: Cytotoxicity against human HOP92 cells by SRB assay; type: functional
# [14] = tested on: HOP-62; test: Cytotoxicity against human HOP62 cells by SRB assay; type: functional
# [15] = tested on: HCT-116; test: Cytotoxicity against human HCT116 cells by SRB assay; type: functional
# [16] = tested on: K562; test: Cytotoxicity against human K562 cells by SRB assay; type: functional
# [17] = tested on: CCRF-CEM; test: Cytotoxicity against human CCRF-CEM cells by SRB assay; type: functional
# [18] = tested on: NCI-H322M; test: Cytotoxicity against human NCI-H322M cells by SRB assay; type: functional
# [19] = tested on: OVCAR-8; test: Cytotoxicity against human OVCAR8 cells by SRB assay; type: functional
# [20] = tested on: SK-MEL-2; test: Cytotoxicity against human SK-MEL-2 cells by SRB assay; type: functional
# [21] = Cytotoxicity against human Colon cancer cells by SRB assay; type: functional; conditions: Cancer cell lines
# [22] = tested on: EKVX; test: Cytotoxicity against human EKVX cells by SRB assay; type: functional
# [23] = tested on: SF-295; test: Cytotoxicity against human SF295 cells by SRB assay; type: functional
# [24] = tested on: NCI-H226; test: Cytotoxicity against human NCI-H226 cells by SRB assay; type: functional
# [25] = tested on: MDA-MB-231; test: Cytotoxicity against human MDA-MB-231 cells by SRB assay; type: functional
# [26] = tested on: SK-MEL-28; test: Cytotoxicity against human SK-MEL-28 cells by SRB assay; type: functional
# [27] = tested on: DU-145; test: Cytotoxicity against human DU145 cells by SRB assay; type: functional
# [28] = tested on: RPMI-8226; test: Cytotoxicity against human RPMI8226 cells by SRB assay; type: functional
# [29] = tested on: M14; test: Cytotoxicity against human M14 cells by SRB assay; type: functional
# [30] = tested on: A549; test: Cytotoxicity against human A549 cells by SRB assay; type: functional
# [31] = tested on: OVCAR-5; test: Cytotoxicity against human OVCAR5 cells by SRB assay; type: functional
# [32] = tested on: NSCLC; test: Cytotoxicity against human NSCLC cells by SRB assay; type: functional
# [33] = Cytotoxicity against human ovarian cancer cells by SRB assay; type: functional; conditions: Cancer cell lines
# [34] = tested on: SK-MEL-5; test: Cytotoxicity against human SK-MEL-5 cells by SRB assay; type: functional
# [35] = tested on: KM12; test: Cytotoxicity against human KM12 cells by SRB assay; type: functional
# [36] = tested on: NCI-H460; test: Cytotoxicity against human NCI-H460 cells by SRB assay; type: functional
# [37] = tested on: SNB-19; test: Cytotoxicity against human SNB19 cells by SRB assay; type: functional
# [38] = tested on: NCI-H522; test: Cytotoxicity against human NCI-H522 cells by SRB assay; type: functional
# [39] = Cytotoxicity against human prostate cancer cells by SRB assay; type: functional; conditions: Cancer cell lines
# [40] = tested on: BT-549; test: Cytotoxicity against human BT549 cells by SRB assay; type: functional
# [41] = tested on: HCC 2998; test: Cytotoxicity against human HCC2998 cells by SRB assay; type: functional
# [42] = tested on: MOLT-4; test: Cytotoxicity against human MOLT4 cells by SRB assay; type: functional
# [43] = tested on: MDA-MB-435; test: Cytotoxicity against human MDA-MB-435 cells by SRB assay; type: functional
# [44] = Cytotoxicity against human breast cancer cells by SRB assay; type: functional; conditions: Cancer cell lines
# [45] = Cytotoxicity against human Hs 578T cells by SRB assay; type: functional
# [46] = Cytotoxicity against human 786-O cells by SRB assay; type: functional; conditions: 786-0
# [47] = tested on: SNB-75; test: Cytotoxicity against human SNB75 cells by SRB assay; type: functional
# [48] = Cytotoxicity against human HL60(TB) cells by SRB assay; type: functional, HL-60(TB); conditions: HL-60
# [49] = tested on: A498; test: Cytotoxicity against human A498 cells by SRB assay; type: functional
# [50] = tested on: UACC-62; test: Cytotoxicity against human UACC62 cells by SRB assay; type: functional
# [51] = tested on: OVCAR-4; test: Cytotoxicity against human OVCAR4 cells by SRB assay; type: functional
# [52] = tested on: LOX IMVI; test: Cytotoxicity against human LOXIMVI cells by SRB assay; type: functional
# [53] = tested on: MCF7; test: Cytotoxicity against human MCF7 cells by SRB assay; type: functional
# [54] = Cytotoxicity against human renal cancer cells by SRB assay; type: functional; conditions: Cancer cell lines
# [55] = tested on: HCT-15; test: Cytotoxicity against human HCT15 cells by SRB assay; type: functional
# [56] = tested on: CAKI-1; test: Cytotoxicity against human Caki1 cells by SRB assay; type: functional
# [57] = tested on: ACHN; test: Cytotoxicity against human ACHN cells by SRB assay; type: functional
# [58] = tested on: UO-31; test: Cytotoxicity against human UO31 cells by SRB assay; type: functional
# [59] = tested on: T47D; test: Cytotoxicity against human T47D cells by SRB assay; type: functional
# [60] = Cytotoxicity against human CNS cancer cells by SRB assay; type: functional; conditions: Cancer cell lines
# [61] = tested on: SR; test: Cytotoxicity against human SR cells by SRB assay; type: functional
# [62] = tested on: OVCAR-3; test: Cytotoxicity against human OVCAR-3 cells by SRB assay; type: functional
# [63] = tested on: SF-268; test: Cytotoxicity against human SF268 cells by SRB assay; type: functional
# [64] = tested on: SW-620; test: Cytotoxicity against human SW620 cells by SRB assay; type: functional
# [65] = tested on: Leukemia cell; test: Cytotoxicity against human Leukemia cells by SRB assay; type: functional
# [66] = tested on: UACC-257; test: Cytotoxicity against human UACC257 cells by SRB assay; type: functional
# [67] = tested on: Malme-3M; test: Cytotoxicity against human MALME-3M cells by SRB assay; type: functional
smiles,measurement,setting,value
CC(=O)OC[C@H]1O[C@@H](O[C@@H]2C[C@H]3C(C)(C)[C@H](OC(C)=O)CC[C@]3(C)[C@H]3CCC4=C([C@@H](C)C[C@@H](O)[C@H](O)C(C)(C)O)CC[C@@]4(C)[C@@]32C)[C@H](O)[C@@H](O)[C@@H]1O,GI50,[1],17 µM
same,GI50,[2],20.4 µM
same,GI50,[3],15.8 µM
same,TGI,[3],30.2 µM
same,GI50,[4],16.2 µM
same,GI50,[5],16.6 µM
same,TGI,[5],30.1 µM
same,GI50,[6],16.2 µM
same,GI50,[7],17.8 µM
same,GI50,[8],14.8 µM
same,GI50,[9],6.03 µM
same,GI50,[10],14.5 µM
same,GI50,[11],16.6 µM
same,TGI,[12],29.1 µM
same,GI50,[13],14.5 µM
same,GI50,[14],16.2 µM
same,GI50,[15],14.1 µM
same,TGI,[15],27.2 µM
same,GI50,[16],12.6 µM
same,GI50,[17],15.8 µM
same,GI50,[18],17.4 µM
same,GI50,[19],15.8 µM
same,GI50,[20],16.2 µM
same,TGI,[21],30.2 µM
same,GI50,[22],17 µM
same,GI50,[23],17.4 µM
same,GI50,[24],17.4 µM
same,GI50,[25],11.5 µM
same,GI50,[26],17 µM
same,GI50,[27],17.8 µM
same,GI50,[28],10.5 µM
same,GI50,[29],17.4 µM
same,GI50,[30],19.1 µM
same,GI50,[31],17.8 µM
same,TGI,[32],30.3 µM
same,TGI,[33],30.4 µM
same,GI50,[34],16.2 µM
same,GI50,[35],22.4 µM
same,TGI,[35],37.1 µM
same,GI50,[36],15.8 µM
same,GI50,[37],14.5 µM
same,GI50,[38],13.2 µM
same,TGI,[39],29.9 µM
same,GI50,[40],15.5 µM
same,GI50,[41],12 µM
same,TGI,[41],25.2 µM
same,GI50,[42],13.2 µM
same,GI50,[43],15.8 µM
same,TGI,[44],28.9 µM
same,GI50,[45],15.1 µM
same,GI50,[46],18.2 µM
same,GI50,[47],13.2 µM
same,GI50,[48],12.9 µM
same,GI50,[49],17.4 µM
same,GI50,[50],12.6 µM
same,GI50,[51],17 µM
same,GI50,[52],12.6 µM
same,GI50,[53],2880 nM
same,TGI,[54],30.8 µM
same,GI50,[55],17 µM
same,TGI,[55],30.8 µM
same,GI50,[56],15.5 µM
same,GI50,[57],17.8 µM
same,GI50,[58],18.2 µM
same,GI50,[59],16.6 µM
same,TGI,[60],28.2 µM
same,GI50,[61],12.3 µM
same,GI50,[62],14.5 µM
same,GI50,[63],16.6 µM
same,GI50,[64],17 µM
same,TGI,[64],30.7 µM
same,TGI,[65],32.2 µM
same,GI50,[66],16.2 µM
same,GI50,[67],16.6 µM
C=C(C=O)[C@H](C)[C@@H]1CC[C@]23C[C@]12CC[C@@H]1[C@@]2(C)CC[C@@H](OC(C)=O)C(C)(C)[C@@H]2C[C@@H](O[C@@H]2O[C@H](COC(C)=O)[C@@H](O)[C@H](O)[C@H]2O)[C@]13C [CUMINDYSODIDE A],TGI,[3],1.4 µM
same,TGI,[5],11.9 µM
same,TGI,[12],6.9 µM
same,TGI,[15],1.4 µM
same,TGI,[21],5 µM
same,TGI,[32],12.5 µM
same,TGI,[33],10.4 µM
same,TGI,[35],9.5 µM
same,TGI,[41],1.4 µM
same,TGI,[54],10.8 µM
same,TGI,[55],7.5 µM
same,TGI,[60],1.4 µM
same,TGI,[64],1.4 µM
same,TGI,[65],4 µM
